Test results as given in ChEMBL document CHEMBL5113460, “Discovery of dual inhibitors of topoisomerase I and Cyclooxygenase-2 for colon cancer therapy” (Eur J Med Chem, 2022).
In brackets after ≈: the same amount, converted by molar mass. Activity calls are given as the source filed them. No cut-off for these calls is given here.

What was measured:
HT-29 [1] = assay: Induction of apoptosis in human HT-29 cells assessed as necrotic cells at 2 uM incubated for 24 hr by Annexin-V-FITC/PI staining based flow cytometry (Rvb=1.67%); format: functional
HT-29 [2] = assay: Antitumor activity against human HT-29 cells assessed as inhibition of cell proliferation incubated for 72 hrs by MTT assay; format: functional, cell-based; details: HT-29, 72 h
HT-29 [3] = assay: Antitumor activity against human HT-29 cells xenografted in BALB/c mouse assessed as reduction of tumor weight at 15 mg/kg, ip bid and measured after 14 days; format: functional, organism-based; details: time 14.0 day
HT-29 [4] = assay: Inhibition of NF-kappaB signalling pathway in human HT-29 cells assessed as decrease in phosphorylated NF-kappaB p65 level at 2 to 8 uM incubated for 24 hrs by Western blot analysis; format: cell-based; details: dose 2-8 µM
RKO [5] = assay: Antiproliferative activity against human RKO cells assessed as inhibition of cell proliferation incubated for 24 to 72 hrs by MTT assay; format: functional, cell-based; details: time 24-72 hrs, DDE = dose-dependent effect
HT-29 [6] = assay: Antitumor activity against human HT-29 cells xenografted in BALB/c mouse assessed as inhibition of tumor growth at 15 mg/kg, ip bid and measured after 14 days by vernier caliper method; format: functional; details: HT-29, 336 h, time 14 day, read-out: TGI
[7] = Cmax in Sprague-Dawley rat at 30 mg/kg, po and measured upto 12 hrs by LC-MS analysis; format: ADME, organism-based; design: time < 12 hrs, dose 30 mg/kg, route po; details: in vivo
HT-29 [8] = assay: Antitumor activity against human HT-29 cells xenografted in BALB/c mouse assessed as tumor necrosis at 15 to 30 mg/kg, ip bid for 14 days by hematoxylin-eosin staining analysis; format: functional, organism-based; details: dose 15-30 mg/kg, time 14.0 day
RKO [9] = assay: Induction of apoptosis in human RKO cells assessed as reduction in mitochondrial membrane potential at 3 to 9 uM by TMRE staining based flow cytometry; format: functional, cell-based; details: dose 3-9 µM
[10] = target: Prostaglandin G/H synthase 2 (Homo sapiens) (UniProt P35354); assay: Inhibition of COX-2 (unknown origin) at 30 uM
HT-29 [11] = assay: Induction of apoptosis in human HT-29 cells assessed as late apoptotic cells at 8 uM incubated for 24 hr by Annexin-V-FITC/PI staining based flow cytometry (Rvb=8.60%); format: functional
[12] = Water solubility of compound by HPLC analysis; format: physicochemical
[13] = target: Prostaglandin G/H synthase 2 (Homo sapiens) (UniProt P35354); assay: Inhibition of COX-2 (unknown origin) at 3 uM
HT-29 [14] = assay: Antitumor activity against human HT-29 cells xenografted in BALB/c mouse assessed as inhibition of tumor microvessel density by measuring CD31-index at 30 mg/kg, ip bid for 14 days by immunohistochemical analysis; format: functional; details: time 14 day
HT-29 [15] = assay: Induction of apoptosis in human HT-29 cells assessed as reduction in mitochondrial membrane potential at 2 to 8 uM by TMRE staining based flow cytometry; format: functional, cell-based; details: dose 2-8 µM
HT-29 [16] = assay: Induction of apoptosis in human HT-29 cells assessed as increase in cleaved caspase-3 protein level at 2 to 8 uM incubated for 24 hrs by western blot analysis; format: functional, cell-based; details: dose 2-8 µM
HT-29 [17] = assay: Antitumor activity against human HT-29 cells xenografted in BALB/c mouse assessed as inhibition of tumor microvessel density by measuring CD31-index at 15 mg/kg, ip bid for 14 days by immunohistochemical analysis; format: functional; details: time 14 day
HT-29 [18] = assay: Induction of apoptosis in human HT-29 cells assessed as decrease in Bcl-2 protein level at 2 to 8 uM incubated for 24 hrs by western blot analysis; format: functional, cell-based; details: dose 2-8 µM
HT-29 [19] = assay: Induction of apoptosis in human HT-29 cells assessed as increase in cytochrome c protein level at 2 to 8 uM incubated for 24 hrs by western blot analysis; format: functional, cell-based; details: dose 2-8 µM
RKO [20] = assay: Induction of apoptosis in human RKO cells assessed as early apoptotic cells at 3 uM incubated for 24 hr by Annexin-V-FITC/PI staining based flow cytometry (Rvb= 7.27%); format: functional
HT-29 [21] = assay: Antitumor activity against human HT-29 cells xenografted in BALB/c mouse assessed as inhibition of tumor cell proliferation at 15 mg/kg, ip bid for 14 days by Ki67 staining based immunohistochemical analysis (Rvb= 16.61+/-1.05%); format: functional; design: scale not given: the % may be the effect or the level left; details: time 14 day
HT-29 [22] = assay: Induction of cell cycle arrest in human HT-29 cells assessed as ratio of G1/G0 phase at 2 to 8 uM incubated for 24 hrs by flow cytometry (Rvb= 55.20%); format: functional; details: dose 2-8 µM
[23] = Half life in Sprague-Dawley rat at 30 mg/kg, po and measured upto 12 hrs by LC-MS analysis; format: ADME, organism-based; details: in vivo
RKO [24] = assay: Induction of apoptosis in human RKO cells assessed as viable cells at 9 uM incubated for 24 hr by Annexin-V-FITC/PI staining based flow cytometry (Rvb= 87.9%); format: functional; details: read-out: Activity
HT-29 [25] = assay: Induction of apoptosis in human HT-29 cells assessed as viable cells at 4 uM incubated for 24 hr by Annexin-V-FITC/PI staining based flow cytometry (Rvb= 83.5%); format: functional; details: read-out: Activity
RKO [26] = assay: Induction of apoptosis in human RKO cells assessed as necrotic cells at 6 uM incubated for 24 hr by Annexin-V-FITC/PI staining based flow cytometry (Rvb= 0.30%); format: functional
[27] = AUC (0-t) in Sprague-Dawley rat at 100 mg/kg, po and measured upto 24 hrs by LC-MS analysis; format: ADME, organism-based; design: dose 100 mg/kg, time < 24 hrs, route po; details: in vivo
HT-29 [28] = assay: Induction of apoptosis in human HT-29 cells assessed as early apoptotic cells at 2 uM incubated for 24 hr by Annexin-V-FITC/PI staining based flow cytometry (Rvb=6.25%); format: functional
RKO [29] = assay: Induction of apoptosis in human RKO cells assessed as viable cells at 6 uM incubated for 24 hr by Annexin-V-FITC/PI staining based flow cytometry (Rvb= 87.9%); format: functional; details: read-out: Activity
HT-29 [30] = assay: Antiproliferative activity against human HT-29 cells assessed as inhibition of cell proliferation incubated for 24 to 72 hrs by MTT assay; format: functional, cell-based; details: time 24-72 hrs, DDE = dose-dependent effect
HT-29 [31] = assay: Induction of apoptosis in human HT-29 cells assessed as necrotic cells at 4 uM incubated for 24 hr by Annexin-V-FITC/PI staining based flow cytometry (Rvb=1.67%); format: functional
RKO [32] = assay: Antiproliferative activity against human RKO cells assessed as inhibition of cell colonies at 0.37 to 1.5 uM incubated for 7 days by crystal violet staining based microscopic analysis; format: functional; details: dose 0.37-1.5 µM, time 7.0 day
HT-29 [33] = assay: Induction of apoptosis in human HT-29 cells assessed as viable cells at 2 uM incubated for 24 hr by Annexin-V-FITC/PI staining based flow cytometry (Rvb= 83.5%); format: functional; details: read-out: Activity
RKO [34] = assay: Induction of apoptosis in human RKO cells assessed as increase in Bax protein level at 3 to 9 uM incubated for 24 hrs by western blot analysis; format: functional, cell-based; details: dose 3-9 µM
RKO [35] = assay: Induction of apoptosis in human RKO cells assessed as increase in cytochrome c protein level at 3 to 9 uM incubated for 24 hrs by western blot analysis; format: functional, cell-based; details: dose 3-9 µM
RKO [36] = assay: Induction of DNA damage in human RKO cells assessed as increase in tail length at 3 to 9 uM incubated for 24 hrs by Comet assay; format: functional, cell-based; details: dose 3-9 µM

Prostaglandin G/H synthase 2 (Homo sapiens), sequence (P35354 whole entry, looked up): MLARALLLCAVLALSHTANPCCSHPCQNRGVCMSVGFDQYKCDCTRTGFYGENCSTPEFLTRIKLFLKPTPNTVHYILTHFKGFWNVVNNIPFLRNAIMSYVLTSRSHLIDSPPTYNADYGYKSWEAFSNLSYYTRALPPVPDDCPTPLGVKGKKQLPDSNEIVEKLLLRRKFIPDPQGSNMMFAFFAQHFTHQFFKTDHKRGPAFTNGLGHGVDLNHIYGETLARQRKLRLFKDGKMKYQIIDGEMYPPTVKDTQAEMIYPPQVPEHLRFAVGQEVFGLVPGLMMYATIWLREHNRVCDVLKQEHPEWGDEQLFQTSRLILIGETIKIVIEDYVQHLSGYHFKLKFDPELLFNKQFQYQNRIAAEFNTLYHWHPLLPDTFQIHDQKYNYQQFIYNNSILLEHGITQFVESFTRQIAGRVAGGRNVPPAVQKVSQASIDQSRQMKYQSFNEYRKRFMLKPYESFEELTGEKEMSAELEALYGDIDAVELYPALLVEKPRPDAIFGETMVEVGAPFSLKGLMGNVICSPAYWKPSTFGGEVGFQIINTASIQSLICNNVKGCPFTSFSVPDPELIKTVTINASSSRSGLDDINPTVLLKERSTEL

IC50 (HT-29 [2]): 1480 nM
Cmax [7]: 1600 ng/mL
inhibition [10]: 100%
solubility [12]: 32.3 µg/mL (≈ 76.8 µM)
inhibition [13]: 74.2%
half-life [23]: 4.27 h
AUC(0-t) at 24 h [27]: 24800 ng·h/mL
Structure (SMILES): Cc1c(Cl)cccc1Nc1ccccc1C(=O)Nc1ccc(N2CCNCC2)cc1
Activity (HT-29 [1]): 1.49%
Activity (HT-29 [3]): Active
inhibition (HT-29 [4]): Active
Activity (RKO [5]): Dde
inhibition in vivo at 15 mg/kg (HT-29 [6]): 40.7%
Activity (HT-29 [8]): Active
Activity (RKO [9]): Active
Activity (HT-29 [11]): 26.1%
Inhibition_index (HT-29 [14]): 6
Activity (HT-29 [15]): Active
Activity (HT-29 [16]): Active
Inhibition_index (HT-29 [17]): 10.67
Activity (HT-29 [18]): Active
Activity (HT-29 [19]): Active
Activity (RKO [20]): 6.88%
Activity (HT-29 [21]): 3.74%
Activity (HT-29 [22]): 65.17%
viability at 9 µM (RKO [24]): 65.6%
viability at 4 µM (HT-29 [25]): 80%
Activity (RKO [26]): 0.73%
Activity (HT-29 [28]): 4.85%
viability at 6 µM (RKO [29]): 81.9%
Activity (HT-29 [30]): Dde
Activity (HT-29 [31]): 1.06%
Activity (RKO [32]): Active
viability at 2 µM (HT-29 [33]): 82.6%
Activity (RKO [34]): Active
Activity (RKO [35]): Active
Activity (RKO [36]): Active
